According to US20250051391A1, “PEPTIDE INHIBITORS AND METHODS FOR INHIBITING PROTEIN AGGREGATION IN NEURONS AND NEURODEGENERATIVE DISEASES” (THE GOVERNING COUNCIL OF THE UNIVERSITY OF TORONTO, priority 2021, published 2025):
Ends that are not written are not given here.

Tests used:
[1] = tested on: HEK293 cells overexpressing WT or A53T a-syn; experiment: Cell Titer-Glo cell viability assay in a-syn expressing cells; format: cell-based, human; settings: for cell viability / cytoprotective effect: HEK293 cells overexpressing WT or A53T a-syn, with or without MG132, expressed GFP-peptide or protein
Protocol: Oligonucleotides encoding the specific peptides were synthesized and individually cloned into the pLJM1 nGFP lentiviral vector. Cells were infected with individual constructs, and cell viability was assessed using Cell Titer-Glo Luminescent assay (Promega) at 72 h post infection.
Cells were trypsinized from subconfluent cultures as described earlier, suspended in culture media, and then seeded into triplicate wells of a 96-well plate (100 μl well/1) at a density of 1.5×10^4 cells per well at standard culture conditions of 5% CO2 in air at 37° C. Cells were infected with lentivirus expressing peptide at an MOI of 5 for 72 h or transfected with plasmid for 72 h. Cell Titer-Glo reagent was added to each well (30 μL), according to the manufacturer's protocol and […].

WT a-syn oligomers = experiment: Split luciferase a-syn oligomer/aggregation assay; format: cell-based, human; settings: cells stably expressing split luciferase WT a-syn constructs; GFP-peptide plasmids
Protocol: tet-off cells stably expressing split luciferase a-syn constructs were trypsinized from subconfluent culture and seeded in a 96-well plate at a density of 15,000 cells per well. Cells were incubated overnight at 37° C. in 5% CO2. […] After 6 h of incubation, 20 μL of cell medium was transferred to a black flat-bottomed 96-well plate. 50 μL of Working solution (Pierce Gaussia-Firefly Luciferase Dual Assay Kit, Thermo Scientific #16181) was added into each well containing cell medium. Immediately after adding the reagent, samples were read using a luminometer with a 480 nm filter.

A53T a-syn = experiment: a-syn protein levels by immunoblot in HEK293 cells; format: cell-based, human; settings: HEK293 cells expressing A53T a-syn
Protocol: Infected or transfected cells were scraped from 6-well dishes and lysed with lysis buffer (50 mM Tris-HCl pH7.4, 1% Nonidet P-40, 150 mM NaCl, 1 mM EDTA, 1× protease inhibitor mixture (Sigma)) for 30 min at 4° C. The insoluble pellet was removed following a 10,000 rpm spin for 5 minutes at 4° C. Lysates were analyzed by SDS-PAGE/immunoblot using 4-20% Mini-PROTEAN Tris-glycine gels (Bio-Rad) transferred to PVDF membranes and blocked in 5% milk containing PBS-Tween-20 (0.1%) for 1 h. PVDF membranes were then incubated with specified primary antibodies followed by incubation with horseradish peroxidase-conjugated secondary antibodies (Santa Cruz Biotechnology) and detected using enhanced chemiluminescence (GE Healthcare).

CHMP2B-VPS4 interaction = target: T1, CHMP2B-VPS4 interaction (Homo sapiens, UniProt Q9UQN3); experiment: Co-immunoprecipitation: disruption of VPS4B-CHMP2B interaction; format: cell-based; settings: Flag-VPS4B, HA-tagged CHMP proteins, GFP-tagged peptides
T1 construct: expressed in transfected cells; host or cells: HEK293T
T1 sequence (Q9UQN3 whole entry): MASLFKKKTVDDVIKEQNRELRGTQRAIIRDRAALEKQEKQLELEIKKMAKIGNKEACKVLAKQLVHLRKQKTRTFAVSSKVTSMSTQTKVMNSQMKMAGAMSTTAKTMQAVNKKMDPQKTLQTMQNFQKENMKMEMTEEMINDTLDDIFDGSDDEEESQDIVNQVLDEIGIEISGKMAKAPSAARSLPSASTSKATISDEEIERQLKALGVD
Protocol: (§1) HEK293T cells were co-transfected with Flag-tagged target protein, HA-tagged source protein, and GFP-tagged peptide or GFP. Cells were lysed 48 h after transfections with radioimmune precipitation assay buffer (50 mM Tris-HCl pH7.4, 1% Nonidet P-40, 150 mM NaCl, 1 mM EDTA, 10 mM Na3VO4, 10 mM sodium pyrophosphate, 25 mM NaF, 1× protease inhibitor mixture (Sigma)) for 30 min at 4° C. and coimmunoprecipitated with Flag beads (Clontech). The resulting immunocomplexes were analyzed by immunoblot using the appropriate antibodies. Protein samples were separated using 4-20% Mini-PROTEAN Tris-glycine gels (Bio-Rad) transferred to PVDF membranes and blocked in 5% milk containing PBS-Tween-20 (0.1%) for 1 h. PVDF membranes were then incubated with specified primary antibodies followed by incubation with horseradish peroxidase-conjugated secondary antibodies (Santa Cruz Biotechnology) and detected using enhanced chemiluminescence (GE Healthcare).

a-syn-CHMP2B interaction = target: T2, a-syn-CHMP2B interaction (Homo sapiens, UniProt Q9UQN3); experiment: Co-immunoprecipitation: disruption of CHMP2B-A53T a-syn interaction; format: cell-based; settings: HEK293 cells; Flag-CHMP2B, HA-tagged A53T a-syn, GFP-tagged peptides
T2 construct: expressed in transfected cells; host or cells: HEK293T
T2 sequence (Q9UQN3 whole entry): as above
Protocol: as §1

[2] = tested on: C. elegans PDE dopaminergic neurons; experiment: C. elegans neurite length assay (A30P a-syn); format: in vivo; settings: A30P human a-syn; RFP-tagged peptide version based on the nematode sequence of CHMP2B
Protocol: C. elegans strains were grown and maintained under standard conditions at 22-23° (4). BZ555 [dat-1p::gfp] was obtained from the C. elegans Genetics Center (CGC; University of Minnesota, St Paul, MN, USA), TWH1 ([dat-1p::a-syn(A30P), ges-1p::DsRed]; [dat-1p::gfp]) was obtained by crossing BZ555 with A30P a-syn transgenic animals (kindly provided by Dr. Takeshi Iwatsubo, University of Tokyo) (5).
The peptide construct (pPD97.78_osm-6p_TagRFP_wpeptide) was obtained by subcloning the following fragments into NheI and SpeI sites of pPD97.78 (A. Fire): NheI-AgeI […] fragment (2.4 kb) obtained by PCR using primer set 5′-[…]-3′ (SEQ ID NO: 44) and 5′-[…]-3′ (SEQ ID NO: 45) and N2 genomic DNA as a template, AgeI-EcoRI TagRFP fragment obtained by PCR using primer set 5′-gttgaccggt[…]-3′ (SEQ ID NO: 46) and 5′-ggcagaattcga[…]-3′ (SEQ ID NO: 47), EcoRI-SmaI peptide ([…] (SEQ ID NO: 48)) fragment digested from CMV_[…]_worm, SmaI-SpeI unc-54 3′-UTR fragment digested from pPD95.75 (Fire vector). […]
Each plasmid (40 ng/μl) was injected with a co-injection marker, sur-5p::mCherry into TWH1. The animals carrying the extrachromosomal arrays were transferred to new plates, and their progenies were analyzed at the adult stage under a widefield microscope (Zeiss AxioObserver). […]

Flag-CHMP2B = target: T3, Flag-CHMP2B (Homo sapiens, UniProt Q9UQN3); experiment: Flag co-immunoprecipitation of GFP-peptides with Flag-CHMP2B; format: binding; settings: GFP-tagged peptides in HEK293T cells
T3 construct: expressed in transfected cells; host or cells: HEK293T
T3 sequence (Q9UQN3 whole entry): as above
Protocol: as §1

Substance | cell viability / cytoprotective effect [1] | effect on cell viability under p62 knockdown ([1]; HEK293 cells stably expressing p62 shRNA) | cytoprotective effect under shRNA knockdown of CHMP2B, VPS4A and/or VPS4B ([1]; cells stably expressing shRNAs) | a-syn oligomers measured by luciferase activity (WT a-syn oligomers) | a-syn protein levels by immunoblot (A53T a-syn) | effect on CHMP2B-VPS4 interaction (co-immunoprecipitation) (CHMP2B-VPS4 interaction) | effect on CHMP2B-VPS4 interaction (co-immunoprecipitation) (CHMP2B-VPS4 interaction; listed as Pdpep1.3) | disruption of a-syn-CHMP2B interaction (co-immunoprecipitation) (a-syn-CHMP2B interaction) | neurite shortening of PDE dopaminergic neurons [2] | interaction with Flag-CHMP2B (co-immunoprecipitation) (Flag-CHMP2B) | interaction with Flag-CHMP2B (co-immunoprecipitation) (Flag-CHMP2B; listed as Pdpep1.3)
DEEIERQLKALG [PDpep1.3] | most prominent effects on cell survival | not significantly affected | prevented by CHMP2B knockdown, but not by knockdown of VPS4A and/or VPS4B | most prominent effects | reduction in a-syn levels | disrupted the interaction between VPS4B and CHMP2B | inhibits the CHMP2B-VPS4 interaction | most prominent disruption | partially rescued | interacted with Flag-CHMP2B | binds to CHMP2B
IPIQLKA [PDpep1, top hit of all screens; maps to CHMP2B residues 203-209] | cytoprotective effects | – | – | reduce WT a-syn oligomers | reduction in a-syn levels | – | – | disrupted the a-syn-CHMP2B interaction | – | interacted with Flag-CHMP2B | –
